Results: PubChem BioAssay AID248 (DTP/NCI, 2004)
“And” between values parts separate entries of the source, which are not always exact repeats. Equal values may be shown once. Inconclusive results and toxic doses are left out. Cut-off read from the data, not from the text of the source: active = T/C of 150% or more; inactive = T/C below 125%.

System: L1210 leukemia ip in BDF1 mice, survival T/C
Experiment: NCI In Vivo Anticancer Drug Screen. Data for tumor model L1210 Leukemia (intraperitoneal) in B6D2F1 (BDF1) mice
Conditions: endpoint: mean survival time, higher = longer survival
Method in brief: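 Antitumor effect is assessed in tumor-bearing animals. Survival in the compound arm is compared with a vehicle-dosed control arm and expressed as their quotient.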

[1] = dose: 100.0 mg/kg/injection, schedule: Q04DX003 (ip), vehicle: saline
[2] = dose: 200.0 mg/kg/injection, schedule: Q04DX003 (ip), vehicle: saline
[3] = dose: 100.0 mg/kg/injection, schedule: Q04DX003 (ip), vehicle: Klucel (hydroxypropylcellulose) (HPC)
[4] = dose: 200.0 mg/kg/injection, schedule: Q04DX003 (ip), vehicle: Klucel (hydroxypropylcellulose) (HPC)
[5] = dose: 100.0 mg/kg/injection, schedule: Q01DX001 (ip), vehicle: saline
[6] = dose: 100.0 mg/kg/injection, schedule: Q01DX005 (ip), vehicle: saline
[7] = dose: 200.0 mg/kg/injection, schedule: Q01DX005 (ip), vehicle: saline
[8] = dose: 200.0 mg/kg/injection, schedule: Q01DX001 (ip), vehicle: saline
[9] = dose: 400.0 mg/kg/injection, schedule: Q01DX001 (ip), vehicle: saline
[10] = dose: 400.0 mg/kg/injection, schedule: Q04DX003 (ip), vehicle: Klucel (hydroxypropylcellulose) (HPC)
[11] = dose: 100.0 mg/kg/injection, schedule: Q01DX009 (ip), vehicle: Klucel (hydroxypropylcellulose) (HPC)
[12] = dose: 200.0 mg/kg/injection, schedule: Q01DX009 (ip), vehicle: Klucel (hydroxypropylcellulose) (HPC)

Measured: T/C

c1ccc(-c2ccc([Si](c3ccc(-c4ccccc4)cc3)(c3ccc(-c4ccccc4)cc3)c3ccc(-c4ccccc4)cc3)cc2)cc1
inactive: dose: 12.5 mg/kg/injection, schedule: Q01DX009 (ip), vehicle: gum acacia 95 % of control | dose: 12.5 mg/kg/injection, schedule: Q04DX003 (ip), vehicle: gum acacia 106 % of control | dose: 25.0 mg/kg/injection, schedule: Q01DX009 (ip), vehicle: gum acacia 100 % of control | dose: 25.0 mg/kg/injection, schedule: Q04DX003 (ip), vehicle: gum acacia 95 % of control | dose: 50.0 mg/kg/injection, schedule: Q01DX009 (ip), vehicle: gum acacia 86 % of control | dose: 50.0 mg/kg/injection, schedule: Q04DX003 (ip), vehicle: gum acacia 92 % of control

c1ccc(SCN2CCN(CSc3ccccc3)CC2)cc1
inactive: [1] 101 % of control | [2] 101 % of control | dose: 400.0 mg/kg/injection, schedule: Q04DX003 (ip), vehicle: saline 98 % of control

CCC(=O)NC1(C(=O)O)CCCc2ccccc21 (stereo unspecified)
inactive: [3] 110 % of control | [4] 96 % of control

NCCCCC(=O)NC(CCCCNC(=O)OCc1ccccc1)C(=O)NCCCCC(=O)NC(CCCCNC(=O)OCc1ccccc1)C(=O)NCCCCC(=O)NC(CCCCNC(=O)OCc1ccccc1)C(=O)NCCCCC(=O)NC(CCCCNC(=O)OCc1ccccc1)C(=O)NCCCCC(=O)NC(CCCCNC(=O)OCc1ccccc1)C(=O)O (stereo unspecified)
inactive: [5] 90 % of control

CC(=O)N1C(=O)NC(=O)C1(CSCc1ccccc1)CSCc1ccccc1
inactive: dose: 50.0 mg/kg/injection, schedule: Q01DX005 (ip), vehicle: saline 104 % of control | [6] 98 % of control | [7] 110 % of control | dose: 400.0 mg/kg/injection, schedule: Q01DX005 (ip), vehicle: saline 94 % of control

CC(C)=NNC(=O)c1ccc[n+](C)c1
inactive: [5] 102 % of control | [8] 98 % of control | [9] 100 % of control

C[PH+](c1ccccc1)c1ccccc1.C[PH+](c1ccccc1)c1ccccc1.O=C([S-])[S-].[Pd+2]
inactive: dose: 50.0 mg/kg/injection, schedule: Q04DX003 (ip), vehicle: saline 100 % of control | [1] 100 % of control | [2] 94 % of control

COc1ccc(/C=N\NC(=O)CCCC(=O)N/N=C/c2ccc(OC)c(O)c2)cc1O
inactive: dose: 50.0 mg/kg/injection, schedule: Q01DX001 (ip), vehicle: saline 100 % of control | [5] 100 % of control | [8] 100 % of control | [9] 103 % of control

Nc1ccc(/C=C/c2ccc(N)cc2)cc1
inactive: [3] 97 % of control | [4] 94 % of control | [10] 94 % of control

O=C(N/N=C/c1cc(Cl)ccc1[N+](=O)[O-])c1cccc2ccccc12
inactive: [8] 101 % of control | [9] 97 % of control

O=[N+]([O-])c1cc(Cl)c(Cl)cc1[N+](=O)[O-]
inactive: dose: 50.0 mg/kg/injection, schedule: Q04DX002 (ip), vehicle: Klucel (hydroxypropylcellulose) (HPC) 106 % of control | dose: 75.0 mg/kg/injection, schedule: Q04DX002 (ip), vehicle: Klucel (hydroxypropylcellulose) (HPC) 103 % of control | dose: 150.0 mg/kg/injection, schedule: Q04DX002 (ip), vehicle: Klucel (hydroxypropylcellulose) (HPC) 101 % of control and 110 % of control

CCC[CH2][Sn]([CH2]CCC)=[N]S(=O)(=O)c1ccc(Cl)c(C)c1
inactive: dose: 5.0 mg/kg/injection, schedule: Q01DX001 (ip), vehicle: saline 98 % of control | dose: 10.0 mg/kg/injection, schedule: Q01DX001 (ip), vehicle: saline 98 % of control | dose: 20.0 mg/kg/injection, schedule: Q01DX001 (ip), vehicle: saline 109 % of control

CCc1nc2[nH]c(N)nc(=S)c2cc1C
inactive: dose: 100.0 mg/kg/injection, schedule: Q01DX Z (ip), vehicle: methylcellulose (MC) 95 % of control | dose: 200.0 mg/kg/injection, schedule: Q01DX Z (ip), vehicle: methylcellulose (MC) 95 % of control

C=CC1CN2CCC1CC2C(O)c1ccnc2ccccc12 (stereo unspecified)
inactive: dose: 100.0 mg/kg/injection, schedule: Q01DX009 (ip), vehicle: gum acacia 107 % of control | dose: 200.0 mg/kg/injection, schedule: Q01DX009 (ip), vehicle: gum acacia 105 % of control

CC1CCC(C(C)C)C(OC(=O)c2c([N+](=O)[O-])ccc([N+](=O)[O-])c2Br)C1 (stereo unspecified)
inactive: [11] 105 % of control | [12] 100 % of control

O=[N+]([O-])c1c(Cl)ccc2c(Cl)ccnc12
inactive: dose: 100.0 mg/kg/injection, schedule: Q04DX003 (ip), vehicle: gum acacia 111 % of control | dose: 200.0 mg/kg/injection, schedule: Q04DX003 (ip), vehicle: gum acacia 91 % of control

O=C(NC(CSC(=O)OCc1ccccc1)C(=O)Oc1ccc([N+](=O)[O-])cc1)OCc1ccccc1 (stereo unspecified)
inactive: [11] 104 % of control | [3] 97 % of control | [12] 114 % of control | [4] 100 % of control | dose: 400.0 mg/kg/injection, schedule: Q01DX009 (ip), vehicle: Klucel (hydroxypropylcellulose) (HPC) 109 % of control | [10] 103 % of control

Cc1c2ccncc2c(C)c2c1oc1ccccc12
inactive: dose: 200.0 mg/kg/injection, schedule: Q01DX009 (ip), vehicle: other 91 % of control | dose: 400.0 mg/kg/injection, schedule: Q01DX009 (ip), vehicle: other 95 % of control

CC(=O)Nc1nc2ncc(C=Nc3cncnc3)nc2c(=O)[nH]1
inactive: dose: 100.0 mg/kg/injection, schedule: Q01DX001 (ip), vehicle: alkali diluted with saline 108 % of control | dose: 200.0 mg/kg/injection, schedule: Q01DX001 (ip), vehicle: alkali diluted with saline 94 % of control | dose: 400.0 mg/kg/injection, schedule: Q01DX001 (ip), vehicle: alkali diluted with saline 92 % of control

O=C(CNC(=O)c1ccccc1)N/N=C\c1c[nH]c2ccccc12
inactive: dose: 100.0 mg/kg/injection, schedule: Q01DX009 (ip), vehicle: saline with Tween-80 97 % of control | dose: 200.0 mg/kg/injection, schedule: Q01DX009 (ip), vehicle: saline with Tween-80 99 % of control | dose: 400.0 mg/kg/injection, schedule: Q01DX009 (ip), vehicle: saline with Tween-80 100 % of control

COc1ccc(CCN(CC(=O)O)S(=O)(=O)c2ccc(C)cc2)cc1OC
inactive: [5] 91 % of control | [8] 100 % of control | [9] 100 % of control

CCOC(=O)C1OC(n2cnc3c(N)ncnc32)C(O)C1O (stereo unspecified)
inactive: [6] 98 % of control | [7] 97 % of control

COC(=O)[C@]1(C)CCC[C@]2(C)c3cc(C(C)=O)c(C(C)C)cc3CC[C@@H]12
inactive: dose: 100.0 mg/kg/injection, schedule: Q04DX003 (ip), vehicle: saline with Tween-80 102 % of control | dose: 200.0 mg/kg/injection, schedule: Q04DX003 (ip), vehicle: saline with Tween-80 105 % of control | dose: 400.0 mg/kg/injection, schedule: Q04DX003 (ip), vehicle: saline with Tween-80 98 % of control

CCc1cccc(CC)c1N1C(=O)C2C(C1=O)C1(Cl)C(Cl)=C(Cl)C2(Cl)C1(Cl)Cl (stereo unspecified)
inactive: dose: 25.0 mg/kg/injection, schedule: Q01DX009 (ip), vehicle: Klucel (hydroxypropylcellulose) (HPC) 98 % of control | dose: 25.0 mg/kg/injection, schedule: Q04DX003 (ip), vehicle: Klucel (hydroxypropylcellulose) (HPC) 91 % of control | dose: 50.0 mg/kg/injection, schedule: Q01DX009 (ip), vehicle: Klucel (hydroxypropylcellulose) (HPC) 102 % of control | dose: 50.0 mg/kg/injection, schedule: Q04DX003 (ip), vehicle: Klucel (hydroxypropylcellulose) (HPC) 93 % of control | [11] 105 % of control | [3] 106 % of control and 88 % of control

[Cl][Pt][Cl].c1ccc([PH+](c2ccccc2)C2CCCCC2)cc1.c1ccc([PH+](c2ccccc2)C2CCCCC2)cc1
inactive: dose: 6.25 mg/kg/injection, schedule: Q04DX003 (ip), vehicle: water 96 % of control | dose: 12.5 mg/kg/injection, schedule: Q04DX003 (ip), vehicle: water 98 % of control | dose: 25.0 mg/kg/injection, schedule: Q04DX003 (ip), vehicle: water 96 % of control | dose: 50.0 mg/kg/injection, schedule: Q04DX003 (ip), vehicle: water 98 % of control

COCCN1CCC(CN2c3ccccc3Sc3ccccc32)C1 (stereo unspecified)
inactive: [1] 111 % of control

O=[N+]([O-])c1ccc(/C([O-])=C(\C(=S)Nc2ccccc2Cl)[n+]2ccccc2)cc1
inactive: dose: 100.0 mg/kg/injection, schedule: Q04DX002 (ip), vehicle: saline with Tween-80 96 % of control | dose: 200.0 mg/kg/injection, schedule: Q04DX002 (ip), vehicle: saline with Tween-80 89 % of control | dose: 400.0 mg/kg/injection, schedule: Q04DX002 (ip), vehicle: saline with Tween-80 96 % of control
